Where two headings read alike, the source gives them in different places.
How the values were obtained:
mRCC patients = assay: Sunitinib toxicities in mRCC patients (CTCAE version 3.0), association with patient factors and genotypes; type: in vivo, human
Protocol: Twelve patients in this study received a starting dose of 50 mg daily. Six patients started with 25 mg daily due to advanced age or patients' aversion to expected toxicities.
Patient characteristics were also collected including age, gender, ethnicity, body weight and height, and Eastern Cooperative Oncology Group (ECOG) performance status. Memorial Sloan-Kettering Cancer Center (MSKCC) prognostic score was calculated for each patient with available data. All the collected data were de-identified by a third party before being used in statistical analysis. The follow-up period ended at the end of April, 2014.
The toxicities analyzed included leucopenia, neutropenia, thrombocytopenia, diarrhea, hand-foot syndrome and early toxicity-necessitated treatment termination. […] Early toxicity-necessitated treatment termination was defined as interruption of the first or second treatment cycle consented by the patient and the physician based on recognition of intolerable or life-threatening toxicities without evidence of progressive disease and failure to resume treatment as far as the patient was followed. For patients experiencing any toxicity grade≧2, cycle interruptions were frequently required; in such cases, a resumed treatment with 25% dose reduction would be applied for safety and life quality considerations.
Genotype associations with toxicity events or responsive tumor were first analyzed using univariate logistic regression. Genotypes generating P<0.20 were further analyzed using multivariate logistic regression including patient age, gender, baseline ECOG status and starting dose as covariates. Progression-free survival and overall survival were estimated by means of Kaplan-Meier method, while the associations of genotypes and patient characteristics with PFS and OS were analyzed using two-tailed log rank test. The effects of genotypes on the progression-free survival and overall survival were then evaluated using multivariate Cox regression model by including genotypes and patient characteristics with P<0.05 in univariate analysis. […] In all analyses, missing data were kept missing except for baseline ECOG status, which was replaced with the median value. As this was designed as a validation study of previously observed correlations rather than an exploratory evaluation, multiple testing correction was not done.

patients = details: cited from earlier work; for Dose reductions: n = 96, Beuselinck et al., 2014
[1] = ABCB1 2677 TT + AT + GT vs Other
[2] = ABCB1 haplotype TTT/TTT vs Other
[3] = ABCG2 421 C/A AA genotype, n = 65, Kim et al., 2013

CCN(CC)CCNC(=O)c1c(C)[nH]c(/C=C2\C(=O)Nc3ccc(F)cc32)c1C [sunitinib]
Decrease of the risk of diarrhea (mRCC patients; ABCB1 1236 T allele): 25 fold | Decrease of the risk of early toxicity-necessitated treatment termination (mRCC patients; ABCB1 1236 T allele): 10 fold | Decrease of the risk of neutropenia (mRCC patients; ABCB1 1236 T allele): 3 fold | Diarrhea prevalence (mRCC patients; ABCB1 1236 T/C CC): 7/9 | Neutropenia prevalence (mRCC patients; ABCB1 1236 T/C CC + CT): 27/52 | Toxicity-necessitated treatment termination prevalence (mRCC patients; ABCB1 1236 T/C CC + CT): 10/53 | Neutropenia prevalence (mRCC patients; ABCB1 1236 T/C TT): 11/32 | Toxicity-necessitated treatment termination prevalence (mRCC patients; ABCB1 1236 T/C TT): 2/30 | Diarrhea prevalence (mRCC patients; ABCB1 1236 T/C TT + CT): 13/82 | Diarrhea OR multivariate (mRCC patients; ABCB1 1236 TT + CT vs CC): 0.04 | Diarrhea OR univariate (mRCC patients; ABCB1 1236 TT + CT vs CC): 0.1 | Neutropenia OR multivariate (mRCC patients; ABCB1 1236 TT vs CC + CT): 0.3 | Neutropenia OR univariate (mRCC patients; ABCB1 1236 TT vs CC + CT): 0.5 | Toxicity-necessitated treatment termination OR multivariate (mRCC patients; ABCB1 1236 TT vs CC + CT): 0.1 | Toxicity-necessitated treatment termination OR univariate (mRCC patients; ABCB1 1236 TT vs CC + CT): 0.3 | Neutropenia prevalence (mRCC patients; ABCB1 2677 G/TA Other): 20/35 | Neutropenia prevalence (mRCC patients; ABCB1 2677 G/TA TT + AT + GT): 20/53 | Decrease of the risk of neutropenia (mRCC patients; ABCB1 2677 T allele): 3 fold | Neutropenia OR multivariate (mRCC patients; [1]): 0.4 | Neutropenia OR univariate (mRCC patients; [1]): 0.5 | Decrease of the risk of neutropenia (mRCC patients; ABCB1 3435, 1236, 2677 TTT haplotype): 10 fold | Neutropenia prevalence (mRCC patients; ABCB1 3435 C/T CC + CT): 38/75 | Neutropenia prevalence (mRCC patients; ABCB1 3435 C/T TT): 1/12 | Decrease of the risk of diarrhea (mRCC patients; ABCB1 3435 T allele): 3 fold | Decrease of the risk of neutropenia (mRCC patients; ABCB1 3435 T allele): 10 fold | Diarrhea prevalence (mRCC patients; ABCB1 3435 T/C CC): 11/34 | Diarrhea prevalence (mRCC patients; ABCB1 3435 T/C TT + CT): 9/60 | Diarrhea OR multivariate (mRCC patients; ABCB1 3435 TT + CT vs CC): 0.3 | Diarrhea OR univariate (mRCC patients; ABCB1 3435 TT + CT vs CC): 0.4 | Neutropenia OR multivariate (mRCC patients; ABCB1 3435 TT vs CC + CT): 0.1 | Neutropenia OR univariate (mRCC patients; ABCB1 3435 TT vs CC + CT): 0.1 | Neutropenia prevalence (mRCC patients; ABCB1 haplotype Other): 38/79 | Neutropenia prevalence (mRCC patients; ABCB1 haplotype TTT/TTT): 1/8 | Neutropenia OR multivariate (mRCC patients; [2]): 0.1 | Neutropenia OR univariate (mRCC patients; [2]): 0.2 | Decrease of the risk of neutropenia (mRCC patients; ABCG2 421 A allele): 3 fold | Neutropenia OR multivariate (mRCC patients; ABCG2 421 AA vs CC + AC): 0.3 | Neutropenia OR univariate (mRCC patients; ABCG2 421 AA vs CC + AC): 0.5 | Neutropenia prevalence (mRCC patients; ABCG2 421 C/A AA): 16/44 | Neutropenia prevalence (mRCC patients; ABCG2 421 C/A CC + AC): 23/42 | Diarrhea OR univariate (mRCC patients; Age): 1.0 | Leucopenia OR univariate (mRCC patients; Age): 1.0 | Neutropenia OR univariate (mRCC patients; Age): 1.0 | Toxicity-necessitated treatment termination OR univariate (mRCC patients; Age): 1.1 | Diarrhea prevalence (mRCC patients; Baseline ECOG 0): 6/27 | Leucopenia prevalence (mRCC patients; Baseline ECOG 0): 1/25 | Neutropenia prevalence (mRCC patients; Baseline ECOG 0): 13/25 | Toxicity-necessitated treatment termination prevalence (mRCC patients; Baseline ECOG 0): 2/26 | Diarrhea prevalence (mRCC patients; Baseline ECOG 1): 9/50 | Leucopenia prevalence (mRCC patients; Baseline ECOG 1): 9/44 | Neutropenia prevalence (mRCC patients; Baseline ECOG 1): 22/46 | Toxicity-necessitated treatment termination prevalence (mRCC patients; Baseline ECOG 1): 7/44 | Diarrhea OR univariate (mRCC patients; Baseline ECOG 1 vs 0): 0.8 | Leucopenia OR univariate (mRCC patients; Baseline ECOG 1 vs 0): 6.2 | Neutropenia OR univariate (mRCC patients; Baseline ECOG 1 vs 0): 0.9 | Toxicity-necessitated treatment termination OR univariate (mRCC patients; Baseline ECOG 1 vs 0): 2.3 | Diarrhea prevalence (mRCC patients; Baseline ECOG 2): 4/12 | Leucopenia prevalence (mRCC patients; Baseline ECOG 2): 1/12 | Neutropenia prevalence (mRCC patients; Baseline ECOG 2): 5/12 | Toxicity-necessitated treatment termination prevalence (mRCC patients; Baseline ECOG 2): 2/12 | Diarrhea OR univariate (mRCC patients; Baseline ECOG 2 vs 0): 1.8 | Leucopenia OR univariate (mRCC patients; Baseline ECOG 2 vs 0): 2.2 | Neutropenia OR univariate (mRCC patients; Baseline ECOG 2 vs 0): 0.7 | Toxicity-necessitated treatment termination OR univariate (mRCC patients; Baseline ECOG 2 vs 0): 2.4 | Diarrhea prevalence (mRCC patients; Baseline ECOG 3): 1/6 | Leucopenia prevalence (mRCC patients; Baseline ECOG 3): 0/4 | Neutropenia prevalence (mRCC patients; Baseline ECOG 3): 0/5 | Toxicity-necessitated treatment termination prevalence (mRCC patients; Baseline ECOG 3): 2/5 | Diarrhea OR univariate (mRCC patients; Baseline ECOG 3 vs 0): 0.7 | Toxicity-necessitated treatment termination OR univariate (mRCC patients; Baseline ECOG 3 vs 0): 8.0 | Diarrhea OR univariate (mRCC patients; Female vs Male): 1.2 | Leucopenia OR univariate (mRCC patients; Female vs Male): 3.3 | Neutropenia OR univariate (mRCC patients; Female vs Male): 2.8 | Toxicity-necessitated treatment termination OR univariate (mRCC patients; Gender (printed on the Male row)): 0.9 | Diarrhea prevalence (mRCC patients; Gender Female): 5/21 | Leucopenia prevalence (mRCC patients; Gender Female): 5/20 | Neutropenia prevalence (mRCC patients; Gender Female): 13/20 | Toxicity-necessitated treatment termination prevalence (mRCC patients; Gender Female): 3/21 | Diarrhea prevalence (mRCC patients; Gender Male): 15/74 | Leucopenia prevalence (mRCC patients; Gender Male): 6/65 | Neutropenia prevalence (mRCC patients; Gender Male): 27/68 | Toxicity-necessitated treatment termination prevalence (mRCC patients; Gender Male): 10/66 | Diarrhea prevalence (mRCC patients; Starting dose 37.5 mg): 15/78 | Leucopenia prevalence (mRCC patients; Starting dose 37.5 mg): 10/70 | Neutropenia prevalence (mRCC patients; Starting dose 37.5 mg): 32/72 | Toxicity-necessitated treatment termination prevalence (mRCC patients; Starting dose 37.5 mg): 8/71 | Diarrhea prevalence (mRCC patients; Starting dose 50 mg): 3/12 | Leucopenia prevalence (mRCC patients; Starting dose 50 mg): 1/11 | Neutropenia prevalence (mRCC patients; Starting dose 50 mg): 7/11 | Toxicity-necessitated treatment termination prevalence (mRCC patients; Starting dose 50 mg): 2/12 | Diarrhea OR univariate (mRCC patients; Starting dose 37.5 vs <37.5 mg): 0.4 | Neutropenia OR univariate (mRCC patients; Starting dose 37.5 vs <37.5 mg): 3.2 | Toxicity-necessitated treatment termination OR univariate (mRCC patients; Starting dose 37.5 vs <37.5 mg): 0.0 | Diarrhea OR univariate (mRCC patients; Starting dose 50 vs <37.5 mg): 0.5 | Neutropenia OR univariate (mRCC patients; Starting dose 50 vs <37.5 mg): 7.0 | Toxicity-necessitated treatment termination OR univariate (mRCC patients; Starting dose 50 vs <37.5 mg): 0.1 | Diarrhea prevalence (mRCC patients; Starting dose <37.5 mg): 2/5 | Leucopenia prevalence (mRCC patients; Starting dose <37.5 mg): 0/4 | Neutropenia prevalence (mRCC patients; Starting dose <37.5 mg): 1/5 | Toxicity-necessitated treatment termination prevalence (mRCC patients; Starting dose <37.5 mg): 3/4 | Leucopenia prevalence (cases affected/total in group) (mRCC patients; all patients (n = 85), first cycle): 11/85 | Toxicity-necessitated treatment termination before completing the first two cycles, prevalence (mRCC patients; all patients (n = 87)): 13/87 | Neutropenia prevalence (cases affected/total in group) (mRCC patients; all patients (n = 88), first cycle): 40/88 | Diarrhea prevalence (cases affected/total in group) (mRCC patients; all patients (n = 95), first cycle): 20/95 | Increase of the risk of leucopenia (mRCC patients; both, human, in vivo): 8.0 fold | Increase of the risk of neutropenia (mRCC patients; both, human, in vivo): 2.7 fold | Leucopenia prevalence (mRCC patients; both, human, in vivo): 8/41 | Severe to life-threatening toxicities (mRCC patients; early use, initiated at 50 mg daily): frequently noted | Neutropenia prevalence (mRCC patients; human, in vivo): 23/41 | Dose reductions (patients; ABCB1 1236 T/C TT genotype): Less dose | Dose reductions (patients; ABCB1 2677G/TA TT or TA genotypes): Less dose | HFS (hand-foot syndrome) (patients; ABCB1 TTT haplotype, n = 219, van Erp et al., 2009): HFS increased | HFS (hand-foot syndrome) (patients; [3]): More | Neutropenia (patients; [3]): More | Thrombocytopenia (patients; [3]): More | Any toxicity grade>2 (patients; in vivo): increased with T | Leucopenia (patients; in vivo): increased with T

Reference: patent publication US20160251725A1, “METHOD FOR PREDICTING CLINICAL TOXICITY AND OUTCOME” (AGENCY FOR SCIENCE, TECHNOLOGY AND RESEARCH, priority 2013, published 2016)
